Laboratory results published in the NIST ThermoML archive (doi:10.1016/j.jct.2012.05.029).
Numbers after ± are expanded uncertainties.

Assay: molar enthalpy of vaporization or sublimation
Details: Liquid, Thermogravimetric Analysis

**Q.** For CCCCCC[n+]1ccn(C)c1.O=S(=O)([N-]S(=O)(=O)C(F)(F)F)C(F)(F)F, which molar enthalpy (541.8 K) is on record?
**A.** The molar enthalpy was 28.2 ± 0.717 kcal/mol.

**Q.** With CCCCCCCCCCCCCCCCCC[n+]1ccn(C)c1.O=S(=O)([N-]S(=O)(=O)C(F)(F)F)C(F)(F)F as the compound, how does the molar enthalpy (582.5 K) read?
**A.** Its molar enthalpy is 33.1 ± 0.717 kcal/mol.

**Q.** Which molar enthalpy (522 K) does the source give for CCCCCCCCCCn1cc[n+](C)c1.O=S(=O)([N-]S(=O)(=O)C(F)(F)F)C(F)(F)F here?
**A.** The molar enthalpy was 29.9 ± 0.717 kcal/mol.

**Q.** For CCCC[n+]1ccn(C)c1.O=S(=O)([N-]S(=O)(=O)C(F)(F)F)C(F)(F)F, which molar enthalpy (541.8 K) is on record?
**A.** Its molar enthalpy is 27.1 ± 0.717 kcal/mol.

**Q.** For CCCCCCCCCCCCn1cc[n+](C)c1.O=S(=O)([N-]S(=O)(=O)C(F)(F)F)C(F)(F)F, which molar enthalpy (533.5 K) is on record?
**A.** Its molar enthalpy is 30.1 ± 0.717 kcal/mol.

**Q.** For CCCCCCCCCCCCCCCCn1cc[n+](C)c1.O=S(=O)([N-]S(=O)(=O)C(F)(F)F)C(F)(F)F, which molar enthalpy (541.8 K) is on record?
**A.** The molar enthalpy was 32.6 ± 0.717 kcal/mol.

**Q.** With CCCCCCCCn1cc[n+](C)c1.O=S(=O)([N-]S(=O)(=O)C(F)(F)F)C(F)(F)F as the compound, how does the molar enthalpy (541.8 K) read?
**A.** The molar enthalpy was 29.3 ± 0.717 kcal/mol.

**Q.** For CCCCCCCCCCCCCCn1cc[n+](C)c1.O=S(=O)([N-]S(=O)(=O)C(F)(F)F)C(F)(F)F, which molar enthalpy (541.8 K) is on record?
**A.** Its molar enthalpy is 31.7 ± 0.717 kcal/mol.
